Experimental data taken from publication PMC7567792, “GPAHex-A synthetic biology platform for Type IV–V glycopeptide antibiotic production and discovery” (Nature Communications, 2020).
≈ marks a conversion by molar mass, not a printed value.

Experiments:
B. subtilis 168 [1] = format: cell-based; conditions: Mueller-Hinton Broth
Protocol: (§1) Antibiotic susceptibility was tested using standard procedures in Mueller-Hinton Broth for most strains. Enterococcus strains were grown in Brain Heart Infusion media (BHI; BD Biosciences). Streptomyces MICs were determined in Bennett’s media (10 g potato starch, 2 g casamino acids, 1.8 g yeast extract, 0.2 g KCl, 0.2 g MgSO4·7H2O, 0.24 g NaNO3, 4 mg FeSO4·7H2O, 1 L ddH2O, pH 6.8).

E. coli BW25113 = format: cell-based; conditions: Mueller-Hinton Broth
Protocol: as §1

[2] = test system: E. coli BW25113ΔbamBΔtolC; format: cell-based; conditions: Mueller-Hinton Broth
Protocol: as §1

E. faecium ATCC19434 = format: cell-based; conditions: Brain Heart Infusion media
Protocol: as §1

E. faecium ATCC29212 = format: cell-based; conditions: Brain Heart Infusion media
Protocol: as §1

[3] = test system: E. faecium ATCC51299 (VREB); format: cell-based; conditions: Brain Heart Infusion media
Protocol: as §1

[4] = test system: E. faecium ATCC70022 (VREA); format: cell-based; conditions: Brain Heart Infusion media
Protocol: as §1

S. aureus ATCC29213 = format: cell-based; conditions: Mueller-Hinton Broth
Protocol: as §1

S. venezuelae ATCC10712 = format: cell-based; conditions: Bennett's media
Protocol: as §1

MRSA USA300 = format: cell-based, S. aureus; conditions: Mueller-Hinton Broth
Protocol: as §1

[5] = test system: Vancomycin intermediate MRSA Mu50; format: cell-based, S. aureus; conditions: Mueller-Hinton Broth
Protocol: as §1

hVISA MRSA Mu3 = format: cell-based, S. aureus; conditions: Mueller-Hinton Broth
Protocol: as §1

[6] = test system: S. coelicolor M1154/pAMX4/pGP6738; test: MIC, antibiotic susceptibility testing; format: cell-based; conditions: Bennett's media
Protocol: as §1

S. coelicolor M1154 = test: MIC, antibiotic susceptibility testing; format: cell-based; conditions: Bennett's media
Protocol: as §1

[7] = test system: panel of indicator strains; test: MIC determination against a panel of indicator strains, comparison of Type V GPAs; format: cell-based
Protocol: as §1

B. subtilis 168 [8] = test: Brightfield microscopy of cell morphology at sub-MIC; format: cell-based; conditions: B. subtilis 168 grown with sub-MIC (0.6× MIC, 3.2 µg/mL GP6738) to mid-log phase
B. subtilis 168 [9] = test: Cell lysis assay / growth tracking (OD600); format: cell-based
Protocol: Early exponential phase B. subtilis 168 (OD600 ~0.25) grown in LB media was dispensed 100 µL per well into a round bottom 96 well plate. Antibiotics were supplemented to the appropriate concentration, and where appropriate lytic agents were added (50 µg/mL fosfomycin, 100 µg/mL ampicillin, 100 mM sodium azide). The plate was covered with a clear, breathable film and OD600 was monitored on a Tecan sunrise microplate reader at 37 °Cwith shaking.

mutanolysin = test: Peptidoglycan autolysin digestion in vitro, mutanolysin; format: biochemical; conditions: mutanolysin 20 µg/mL, 1 mg/mL B. subtilis PG, 20 mM sodium acetate pH 6.5, 30 min preincubation, OD600, 37 °C, triplicate
Protocol: (§2) The muramidase mutanolysin was purchased from Sigma. The glucosaminidase domain from LytD was cloned from B. subtilis 168 into pET28 between NcoI and XhoI restriction sites for introduction of C-term 6× His. Construct was expressed from E. coli BL21(DE3) pLysS by inoculating 1 L of LB media 1:50 from an overnight culture, then growing at 37 °C until OD600 reached 0.6, at which time the cells were induced with 1 mM IPTG and grown for 18 h at 16 °C. Native LytD-6× His was purified by Ni-NTA affinity chromatography and cation exchange chromatography. Protein purity was >95% as assessed by SDS-PAGE analysis.
(§3) B. subtilis peptidoglycan for binding and digestion assays was prepared by harvesting the cells (OD600 0.6–0.7), boiled in 4% SDS, and washed and sonicated to break up sacculi, followed by α-amylase and DNase treatment, and digested with pronase overnight. The peptidoglycan was boiled in 2% SDS again, washed, and teichoic acids were hydrolysed with 1 M HCl. The peptidoglycan was washed with water to pH 6.0 and lyophilized to use. Peptidoglycan was digested under optimized conditions with either mutanolysin (20 µg/mL, 1 mg/mL PG, 20 mM sodium acetate, pH 6.5) or LytD (10 µg/mL, 1 mg/mL PG, 200 mM NaCl, 50 mM MES-NaOH, pH 5.5). […] The plate was covered with a clear, breathable film to prevent evaporation, and OD600 was tracked on a Tecan sunrise microplate reader shaking at 37 °C.

LytD = test: Peptidoglycan autolysin digestion in vitro, LytD; format: biochemical, B. subtilis 168; conditions: LytD 10 µg/mL, 1 mg/mL B. subtilis PG, 200 mM NaCl, 50 mM MES-NaOH pH 5.5, 30 min preincubation, OD600, 37 °C, triplicate
Protocol: as §2, §3

[10] = Peptidoglycan binding assay; parameters: species or system B. subtilis; conditions: 0.1 mg/mL GP6738 in water with 20% DMSO, PG 25:1 to 200:1 w/w, 1–2 h at 37 °C, unbound compound by HPLC
Protocol: To assess peptidoglycan binding, GP6738 was diluted to 0.1 mg/mL in water with 20% (v/v) DMSO to aid GP6738 solubility. For each 100 μL binding assay, B. subtilis peptidoglycan was added to 0 mg/mL, 2.5 mg/mL, 5 mg/mL, 10 mg/mL or 20 mg/mL for 0, 25:1, 50:1, 100:1 and 200:1 w/w ratios, respectively. Mixtures were incubated for 1–2 h at 37 °C, then centrifuged for 10 min to thoroughly pellet insoluble material, and the supernatant was removed for analysis. Samples were prepared for HPLC analysis by the addition of NH4OH to 0.01% (v/v), and 50 µL was injected on the HPLC. Analysis was performed using a Thermo Hypersil GOLD aQ C18 4.6 × 150 mm column and the following gradient at 0.8 mL/min, 40 °C: t = 0–2 min 0% solvent B, t = 10–13 min 65% solvent B, t = 14 min 0% solvent B (solvent A: 0.01% v/v NH4OH in water [pH 9.6] and solvent B: ACN).

Bacillus subtilis 168 = test: Antibacterial activity assay (bioassay) of fermentation extracts; format: cell-based; conditions: B. subtilis 168
Text: Supplementary Fig. 4. Bioassay of corbomycin heterologous expression extracts against B. subtilis 168. Crude extracts from S. coelicolor M1154/pGP1529 strain do […]
from S. coelicolor M1154/pAMX4/pGP1529. […]
parental strain S. sp. WAC01529 are likely the result of uncharacterized compounds produced by this strain, as equivalent amounts of purified corbomycin as are present […]
Source data are provided as a Source Data file.
(1 picture or pasted object on this page, not shown here)

[11] = amide linkage changed to an ester; cited from earlier work
Text: Glycopeptide antibiotics (GPAs), such as vancomycin and teicoplanin (Fig. 1a), are microbial natural products (NPs) that are essential for the control of infections caused by Gram-positive pathogens. Vancomycin and teicoplanin inhibit bacterial cell wall biosynthesis by binding to the D-Alanine-D-Alanine terminating dipeptide of growing peptidoglycan and its extracellular precursors. Like all antibiotics, GPAs are vulnerable to resistance. Vancomycin resistance occurs through reprogramming of cell wall biosynthesis, mediated by a vanRSHAX resistance cassette that replaces the D-Ala-D-Ala te ...

CC(C)C(NC(=O)C(NC(=O)C(N)c1cc(O)cc(O)c1)c1cc(O)cc(O)c1)C(=O)NC1Cc2c[nH]c3cc(ccc23)-c2cc3cc(c2O)Oc2ccc(cc2)CC(C(=O)NC(C(=O)O)c2cc(O)cc(O)c2)NC(=O)C(c2cc(O)cc(O)c2)NC(=O)C3NC(=O)C(c2cc(O)cc(O)c2)NC1=O (stereo not shown) [GP6738]
MIC (B. subtilis 168 [1]): 4 µg/mL (≈ 2.78 µM) | MIC (E. coli BW25113): > 256 µg/mL | MIC [2]: > 256 µg/mL | MIC (E. faecium ATCC19434): 64 µg/mL (≈ 44.5 µM) | MIC (E. faecium ATCC29212): 64 µg/mL (≈ 44.5 µM) | MIC [3]: 64 µg/mL (≈ 44.5 µM) | MIC [4]: 64 µg/mL (≈ 44.5 µM) | MIC (S. aureus ATCC29213): 4 µg/mL (≈ 2.78 µM) | MIC (S. venezuelae ATCC10712): 16 µg/mL (≈ 11.1 µM) | MIC (MRSA USA300): 4 µg/mL (≈ 2.78 µM) | MIC [5]: 2 to 4 µg/mL | MIC (hVISA MRSA Mu3): 4 µg/mL (≈ 2.78 µM) | MIC [6]: 16 µg/mL (≈ 11.1 µM) | MIC (S. coelicolor M1154): 16 µg/mL (≈ 11.1 µM) | fold higher MIC of GP6738 compared to corbomycin [7]: 2–16 fold | cell morphology (B. subtilis 168 [8]): characteristic elongated cell morphology of autolysin inhibition | bacteriostatic or bacteriolytic effect, growth tracking (B. subtilis 168 [9]; B. subtilis 168, 10-fold MIC, OD600, 37 °C, n = 3): bacteriostatic phenotype | block of cell lysis induced by lytic agents (B. subtilis 168 [9]; B. subtilis 168, 10× MIC, 50 µg/mL fosfomycin, 100 µg/mL ampicillin or 100 mM sodium azide, OD600, n = 3): able to block cell lysis | block of peptidoglycan digestion by mutanolysin (mutanolysin): blocks cell wall digestion | block of peptidoglycan digestion by LytD (LytD): blocks cell wall digestion | binding to peptidoglycan [10]: binding to peptidoglycan

Complestatin
MIC (B. subtilis 168 [1]): 0.5 µg/mL | MIC (E. coli BW25113): > 256 µg/mL | MIC [2]: 64 µg/mL | MIC (E. faecium ATCC19434): 64 µg/mL | MIC (E. faecium ATCC29212): 32 µg/mL | MIC [3]: 32 µg/mL | MIC [4]: 64 µg/mL | MIC (S. aureus ATCC29213): 2 µg/mL | MIC (S. venezuelae ATCC10712): 2 µg/mL | MIC (MRSA USA300): 2 µg/mL | MIC [5]: 0.5 µg/mL | MIC (hVISA MRSA Mu3): 0.5 µg/mL | MIC (S. coelicolor M1154): 4 µg/mL

Corbomycin
MIC (B. subtilis 168 [1]): 1 µg/mL | MIC (E. coli BW25113): > 256 µg/mL | MIC [2]: 32 µg/mL | MIC (E. faecium ATCC19434): 4 µg/mL | MIC (E. faecium ATCC29212): 4 µg/mL | MIC [3]: 4 µg/mL | MIC [4]: 4 µg/mL | MIC (S. aureus ATCC29213): 1 µg/mL | MIC (S. venezuelae ATCC10712): 2 µg/mL | MIC (MRSA USA300): 1 µg/mL | MIC [5]: 1 µg/mL | MIC (hVISA MRSA Mu3): 1 µg/mL | MIC [6]: 4 µg/mL | MIC (S. coelicolor M1154): 4 µg/mL | growth inhibition / zones of inhibition (Bacillus subtilis 168): do not give zones

CN[C@H](CC(C)C)C(=O)N[C@H]1C(=O)N[C@@H](CC(N)=O)C(=O)N[C@H]2C(=O)N[C@H]3C(=O)N[C@H](C(=O)N[C@H](C(=O)O)c4cc(O)cc(O)c4-c4cc3ccc4O)[C@H](O)c3ccc(c(Cl)c3)Oc3cc2cc(c3O[C@@H]2O[C@H](CO)[C@@H](O)[C@H](O)[C@H]2O[C@H]2C[C@](C)(N)[C@H](O)[C@H](C)O2)Oc2ccc(cc2Cl)[C@H]1O [Vancomycin]
MIC (B. subtilis 168 [1]): 0.25 µg/mL (≈ 0.173 µM) | MIC (E. coli BW25113): 256 µg/mL (≈ 177 µM) | MIC [2]: 8 µg/mL (≈ 5.52 µM) | MIC (E. faecium ATCC19434): 2 µg/mL (≈ 1.38 µM) | MIC (E. faecium ATCC29212): 2 µg/mL (≈ 1.38 µM) | MIC [3]: 32 µg/mL (≈ 22.1 µM) | MIC [4]: > 256 µg/mL | MIC (S. aureus ATCC29213): 1 µg/mL (≈ 0.69 µM) | MIC (S. venezuelae ATCC10712): 0.25 µg/mL (≈ 0.173 µM) | MIC (MRSA USA300): 1 µg/mL (≈ 0.69 µM) | MIC [5]: 8 µg/mL (≈ 5.52 µM) | MIC (hVISA MRSA Mu3): 2 µg/mL (≈ 1.38 µM) | MIC [6]: 256 µg/mL (≈ 177 µM) | MIC (S. coelicolor M1154): 256 µg/mL (≈ 177 µM) | decrease of affinity of vancomycin on change of D-Ala-D-Ala to D-Ala-D-Lactate [11]: 1000 fold
